The numbers were not newly measured in patent US20170151272A1, “A NOVEL PHARMACEUTICAL COMPOSITION OF […] RIBAVIRIN” (SANOVEL ILAC SANAYI VE TICARET ANONIM SIRKETI, priority 2014, published 2017), which cites them from elsewhere.

This series has as its system chronic hepatitis C (CHC) infections. To be noted: ribavirin alone.

With “1-β-Dribofuranosyl-1H-1,2,4-triazole-3-carboxamide [Ribavirin]”, the sustained virologic response result is listed as “did not produce any sustained virologic response”. Moreover, the “HCV RNA levels” value (during or after therapy) is on record as “did not reduce”. The “alanine aminotransferase (ALT) levels” value (during the course of treatment, some patients with CHC) was “normalize W201 alanine aminotransferase (ALT) levels transiently”.
